Assay results published in ChEMBL document CHEMBL4184276, “Curcumin inspired 2-chloro/phenoxy quinoline analogues: Synthesis and biological evaluation as potential anticancer agents” (Bioorg Med Chem Lett, 2018).
Activity calls are given as the source filed them. The rule behind the calls is not given here.

How the values were obtained:
HeLa = assay: Cytotoxicity against human HeLa cells assessed as reduction in cell viability after 48 hrs by MTT assay; type: functional, cell-based
HGC-27 = assay: Cytotoxicity against human HGC27 cells assessed as reduction in cell viability after 48 hrs by MTT assay; type: functional, cell-based; conditions: HGC-27, 48 h
NCI-H460 [1] = assay: Cytotoxicity against human NCI-H460 cells assessed as reduction in cell viability after 48 hrs by MTT assay; type: functional, cell-based; conditions: NCI-H460, 48 h
DU-145 [2] = assay: Cytotoxicity against human DU145 cells assessed as reduction in cell viability after 48 hrs by MTT assay; type: functional, cell-based; conditions: DU-145, 48 h
PC-3 [3] = assay: Cytotoxicity against human PC3 cells assessed as reduction in cell viability after 48 hrs by MTT assay; type: functional, cell-based; conditions: PC-3, 48 h
4T1 = assay: Cytotoxicity against mouse 4T1 cells assessed as reduction in cell viability after 48 hrs by MTT assay; type: functional, cell-based; conditions: 4T1, 48 h
NCI-H460 [4] = assay: Potency index, ratio of curcumin IC50 to compound IC50 for human NCI-H460 cells; type: functional
DU-145 [5] = assay: Potency index, ratio of curcumin IC50 to compound IC50 for human DU145 cells; type: functional
PC-3 [6] = assay: Potency index, ratio of curcumin IC50 to compound IC50 for human PC3 cells; type: functional
PC-3 [7] = assay: Cell cycle arrest in human PC3 cells assessed as accumulation at sub-G1 phase at 2 uM after 24 hrs by propidium iodide staining based flow cytometry (reference value: 0.43%); type: functional
PC-3 [8] = assay: Cell cycle arrest in human PC3 cells assessed as accumulation at G0/G1 phase at 2 uM after 24 hrs by propidium iodide staining based flow cytometry (reference value: 55.61%); type: functional
PC-3 [9] = assay: Cell cycle arrest in human PC3 cells assessed as accumulation at S phase at 2 uM after 24 hrs by propidium iodide staining based flow cytometry (reference value: 9.48%); type: functional
PC-3 [10] = assay: Cell cycle arrest in human PC3 cells assessed as accumulation at G2/M phase at 2 uM after 24 hrs by propidium iodide staining based flow cytometry (reference value: 34.49%); type: functional
PC-3 [11] = assay: Cell cycle arrest in human PC3 cells assessed as accumulation at sub-G1 phase at 4 uM after 24 hrs by propidium iodide staining based flow cytometry (reference value: 0.43%); type: functional
PC-3 [12] = assay: Cell cycle arrest in human PC3 cells assessed as accumulation at G0/G1 phase at 4 uM after 24 hrs by propidium iodide staining based flow cytometry (reference value: 55.61%); type: functional
PC-3 [13] = assay: Cell cycle arrest in human PC3 cells assessed as accumulation at S phase at 4 uM after 24 hrs by propidium iodide staining based flow cytometry (reference value: 9.48%); type: functional
PC-3 [14] = assay: Cell cycle arrest in human PC3 cells assessed as accumulation at G2/M phase at 4 uM after 24 hrs by propidium iodide staining based flow cytometry (reference value: 34.49%); type: functional
[15] = Aqueous solubility in milli-Q water at 2 mg incubated for 5 mins followed by sonication for 1 mins measured after 24 hrs by UV-Visible spectroscopic method; type: physicochemical
PC-3 [16] = assay: Cell cycle arrest in human PC3 cells assessed as accumulation at G2/M phase after 24 hrs by propidium iodide staining based flow cytometry; type: functional
PC-3 [17] = assay: Induction of apoptosis in human PC3 cells assessed as cell membrane blebbing at 1 uM after 24 hrs by acridine orange/ethidium bromide staining based fluorescence microscopic method; type: functional
PC-3 [18] = assay: Induction of apoptosis in human PC3 cells assessed as chromatin condensation at 1 uM after 24 hrs by acridine orange/ethidium bromide staining based fluorescence microscopic method; type: functional, cell-based
PC-3 [19] = assay: Induction of apoptosis in human PC3 cells assessed as non-uniform distribution of chromatin at 2 uM after 24 hrs by acridine orange/ethidium bromide staining based fluorescence microscopic method; type: functional, cell-based
PC-3 [20] = assay: Induction of apoptosis in human PC3 cells assessed as fragmentation of chromatin at 4 uM after 24 hrs by acridine orange/ethidium bromide staining based fluorescence microscopic method; type: functional, cell-based
PC-3 [21] = assay: Induction of apoptosis in human PC3 cells assessed as condensed and pyknotic nuclei formation at 4 uM after 24 hrs by DAPI staining based fluorescence microscopic method; type: functional, cell-based
PC-3 [22] = assay: Induction of ROS generation in human PC3 cells at 1 to 2 uM after 24 hrs by DCFDA staining based flow cytometry; type: functional, cell-based
PC-3 [23] = assay: Induction of apoptosis in human PC3 cells assessed as live cells at 2 uM after 24 hrs by Annexin V-FITC/propidium iodide staining based flow cytometry (reference value: 84.82%); type: functional
PC-3 [24] = assay: Induction of apoptosis in human PC3 cells assessed as early apoptotic cells at 2 uM after 24 hrs by Annexin V-FITC/propidium iodide staining based flow cytometry (reference value: 7.1%); type: functional
PC-3 [25] = assay: Induction of apoptosis in human PC3 cells assessed as late apoptotic cells at 2 uM after 24 hrs by Annexin V-FITC/propidium iodide staining based flow cytometry (reference value: 7.8%); type: functional
PC-3 [26] = assay: Induction of apoptosis in human PC3 cells assessed as necrotic cells at 2 uM after 24 hrs by Annexin V-FITC/propidium iodide staining based flow cytometry (reference value: 0.28%); type: functional
PC-3 [27] = assay: Induction of apoptosis in human PC3 cells assessed as live cells at 4 uM after 24 hrs by Annexin V-FITC/propidium iodide staining based flow cytometry (reference value: 84.82%); type: functional
PC-3 [28] = assay: Induction of apoptosis in human PC3 cells assessed as early apoptotic cells at 4 uM after 24 hrs by Annexin V-FITC/propidium iodide staining based flow cytometry (reference value: 7.1%); type: functional
PC-3 [29] = assay: Induction of apoptosis in human PC3 cells assessed as late apoptotic cells at 4 uM after 24 hrs by Annexin V-FITC/propidium iodide staining based flow cytometry (reference value: 7.8%); type: functional
PC-3 [30] = assay: Induction of apoptosis in human PC3 cells assessed as necrotic cells at 4 uM after 24 hrs by Annexin V-FITC/propidium iodide staining based flow cytometry (reference value: 0.28%); type: functional

Compound: COc1cc(OC)c(OC)cc1/C=C/C(=O)/C=C/c1cc2ccccc2nc1Cl
- IC50 (HeLa): 5.41 µM
- IC50 (HGC-27): 8.73 µM
- IC50 (NCI-H460 [1]): 3.96 µM
- IC50 (DU-145 [2]): 3.99 µM
- IC50 (PC-3 [3]): 3.12 µM
- IC50 (4T1): 1.81 µM
- Ratio IC50 (NCI-H460 [4]): 4.3
- Ratio IC50 (DU-145 [5]): 8.3
- Ratio IC50 (PC-3 [6]): 6
- Activity (PC-3 [7]): 0.9%
- Activity (PC-3 [8]): 50.4%
- Activity (PC-3 [9]): 10.02%
- Activity (PC-3 [10]): 38.16%
- Activity (PC-3 [11]): 0.6%
- Activity (PC-3 [12]): 46.86%
- Activity (PC-3 [13]): 6.86%
- Activity (PC-3 [14]): 45.74%
- solubility [15]: Soluble
- Activity (PC-3 [16]): Dose-dependent effect
- Activity (PC-3 [17]): Active
- Activity (PC-3 [18]): Active
- Activity (PC-3 [19]): Active
- Activity (PC-3 [20]): Active
- Activity (PC-3 [21]): Active
- Activity (PC-3 [22]): Active
- Activity (PC-3 [23]): 73.21%
- Activity (PC-3 [24]): 6.07%
- Activity (PC-3 [25]): 18.51%
- Activity (PC-3 [26]): 2.21%
- Activity (PC-3 [27]): 60.06%
- Activity (PC-3 [28]): 7.97%
- Activity (PC-3 [29]): 29.17%
- Activity (PC-3 [30]): 2.8%
